Source: ChEMBL document CHEMBL1909046, “DrugMatrix in vitro pharmacology data”

Columns and labels:
[1] = target: C-C chemokine receptor type 5 (Homo sapiens, UniProt P51681); assay type: cell membranes, Membrane; conditions: hek293; note: in other assays of this panel Not Active means under 50% inhibition at 10 µM
[2] = target: Beta-3 adrenergic receptor (Homo sapiens, UniProt P13945); assay: DRUGMATRIX: Adrenergic beta3 radioligand binding (ligand: [125I] Cyanopindolol); assay type: cell membranes, HEK293, Membrane; conditions: hek293; Not Active = under 50% inhibition at 10 µM
Carbonic anhydrase 2 = Carbonic anhydrase 2 (Homo sapiens, UniProt P00918); assay: DRUGMATRIX: Carbonic Anhydrase II enzyme inhibition (substrate: 4-Nitrophenyl acetate (4-NPA)); assay type: tissue-based, Erythrocyte; conditions: erythrocyte; Not Active = under 50% inhibition at 10 µM
Glucocorticoid receptor = target: T1, Glucocorticoid receptor (Homo sapiens, UniProt P04150); conditions: hela s3; note: in other assays of this panel Not Active means under 50% inhibition at 10 µM
T1 sequence (P04150 whole entry): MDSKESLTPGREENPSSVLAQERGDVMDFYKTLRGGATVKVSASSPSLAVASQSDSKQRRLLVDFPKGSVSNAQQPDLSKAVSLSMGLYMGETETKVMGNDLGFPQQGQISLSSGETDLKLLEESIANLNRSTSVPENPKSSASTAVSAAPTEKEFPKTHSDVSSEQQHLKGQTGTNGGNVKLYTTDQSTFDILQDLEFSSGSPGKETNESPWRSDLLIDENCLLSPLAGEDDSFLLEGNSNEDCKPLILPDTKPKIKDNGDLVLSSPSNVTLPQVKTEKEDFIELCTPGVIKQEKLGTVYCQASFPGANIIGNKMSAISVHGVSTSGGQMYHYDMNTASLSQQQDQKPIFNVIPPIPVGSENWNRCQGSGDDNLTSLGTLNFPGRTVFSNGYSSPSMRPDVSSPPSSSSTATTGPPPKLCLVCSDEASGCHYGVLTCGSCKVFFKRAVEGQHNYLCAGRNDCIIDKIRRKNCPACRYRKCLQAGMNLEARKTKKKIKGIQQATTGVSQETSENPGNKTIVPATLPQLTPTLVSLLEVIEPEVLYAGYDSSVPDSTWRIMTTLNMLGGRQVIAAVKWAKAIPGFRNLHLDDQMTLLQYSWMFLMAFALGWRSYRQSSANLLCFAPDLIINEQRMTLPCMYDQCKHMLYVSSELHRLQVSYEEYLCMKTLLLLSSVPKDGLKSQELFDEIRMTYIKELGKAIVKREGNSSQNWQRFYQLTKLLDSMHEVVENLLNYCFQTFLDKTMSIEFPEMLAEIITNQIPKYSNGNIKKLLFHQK

[3] = target: T2, Alpha-2C adrenergic receptor (Homo sapiens, UniProt P18825); assay: DRUGMATRIX: Adrenergic Alpha-2C radioligand binding (ligand: [3H] MK-912); assay type: cell membranes, Sf9, Membrane; conditions: sf9
T2 sequence (P18825 whole entry): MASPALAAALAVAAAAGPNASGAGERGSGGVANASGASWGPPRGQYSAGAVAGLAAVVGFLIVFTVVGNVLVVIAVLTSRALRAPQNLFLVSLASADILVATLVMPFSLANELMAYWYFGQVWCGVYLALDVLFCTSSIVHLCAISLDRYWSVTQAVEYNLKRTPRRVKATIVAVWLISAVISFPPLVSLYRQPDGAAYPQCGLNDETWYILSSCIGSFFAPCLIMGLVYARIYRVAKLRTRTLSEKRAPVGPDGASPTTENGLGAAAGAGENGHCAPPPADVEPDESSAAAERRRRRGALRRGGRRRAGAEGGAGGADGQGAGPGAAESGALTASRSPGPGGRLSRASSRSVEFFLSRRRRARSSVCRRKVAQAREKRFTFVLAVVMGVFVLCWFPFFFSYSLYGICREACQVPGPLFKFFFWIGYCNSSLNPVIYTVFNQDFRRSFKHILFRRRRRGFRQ

[4] = target: 5-hydroxytryptamine receptor 6 (Homo sapiens, UniProt P50406); assay type: cell membranes, HeLa, Membrane; note: in other assays of this panel Not Active means under 50% inhibition at 10 µM
[5] = DRUGMATRIX: Imidazoline I2, Central radioligand binding (ligand: [3H] Idazoxan); assay type: cell membranes, Rattus norvegicus, Wistar, Cerebral cortex, Membrane; conditions: Not Active = under 50% inhibition at 10 µM
[6] = target: Beta-1 adrenergic receptor (Homo sapiens, UniProt P08588); assay: DRUGMATRIX: Adrenergic beta1 radioligand binding (ligand: [125I] Cyanopindolol); assay type: cell membranes, CHO-K1, Membrane; conditions: cho-k1; Not Active = under 50% inhibition at 10 µM
[7] = DRUGMATRIX: Calcium Channel Type L, Dihydropyridine radioligand binding (ligand: [3H] Nitrendipine); assay type: cell membranes, Rattus norvegicus, Wistar, Cerebral cortex, Membrane; conditions: Not Active = under 50% inhibition at 10 µM
Glycine receptor = Glycine receptor (Rattus norvegicus, UniProt P22771+P24524+P07727+P20781); assay type: cell membranes, Wistar, Spinal cord, Membrane; note: in other assays of this panel Not Active means under 50% inhibition at 10 µM
[8] = target: T3, C-C chemokine receptor type 4 (Homo sapiens, UniProt P51679); assay type: cell membranes, Membrane; conditions: chem-1; note: in other assays of this panel Not Active means under 50% inhibition at 10 µM
T3 sequence (P51679 whole entry): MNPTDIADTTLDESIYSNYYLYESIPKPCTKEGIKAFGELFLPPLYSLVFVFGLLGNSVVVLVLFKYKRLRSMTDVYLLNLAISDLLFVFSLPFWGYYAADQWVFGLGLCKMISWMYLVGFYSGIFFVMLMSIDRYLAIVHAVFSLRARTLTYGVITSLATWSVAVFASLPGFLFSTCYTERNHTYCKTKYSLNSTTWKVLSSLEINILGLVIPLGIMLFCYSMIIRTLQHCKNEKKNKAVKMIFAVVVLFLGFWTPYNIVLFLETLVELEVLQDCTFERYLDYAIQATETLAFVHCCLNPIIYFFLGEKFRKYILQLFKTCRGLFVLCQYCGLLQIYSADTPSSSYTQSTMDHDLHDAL

Adenosine receptor A1 = target: T4, Adenosine receptor A1 (Homo sapiens, UniProt P30542); assay type: cell membranes, CHO, Membrane; conditions: cho
T4 sequence (P30542 whole entry): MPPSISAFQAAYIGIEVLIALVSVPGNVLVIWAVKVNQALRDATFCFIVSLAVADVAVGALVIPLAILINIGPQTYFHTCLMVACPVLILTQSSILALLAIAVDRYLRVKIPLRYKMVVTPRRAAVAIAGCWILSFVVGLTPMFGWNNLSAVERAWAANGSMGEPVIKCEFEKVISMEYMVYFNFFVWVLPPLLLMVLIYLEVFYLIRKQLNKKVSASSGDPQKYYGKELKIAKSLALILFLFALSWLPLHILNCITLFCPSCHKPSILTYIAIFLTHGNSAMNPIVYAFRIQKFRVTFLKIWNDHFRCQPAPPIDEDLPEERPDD

Sequence of C-C chemokine receptor type 5 (P51681 whole entry): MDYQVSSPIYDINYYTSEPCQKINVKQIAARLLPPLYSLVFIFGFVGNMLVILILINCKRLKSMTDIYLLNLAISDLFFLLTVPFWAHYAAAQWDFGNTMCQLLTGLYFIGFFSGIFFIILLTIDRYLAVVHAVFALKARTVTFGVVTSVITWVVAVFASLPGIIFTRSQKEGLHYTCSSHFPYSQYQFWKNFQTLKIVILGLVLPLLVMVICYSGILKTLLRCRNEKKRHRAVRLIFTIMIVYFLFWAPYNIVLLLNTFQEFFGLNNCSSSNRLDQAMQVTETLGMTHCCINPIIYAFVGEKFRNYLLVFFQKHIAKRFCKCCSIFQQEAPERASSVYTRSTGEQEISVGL
Sequence of Beta-1 adrenergic receptor (P08588 whole entry): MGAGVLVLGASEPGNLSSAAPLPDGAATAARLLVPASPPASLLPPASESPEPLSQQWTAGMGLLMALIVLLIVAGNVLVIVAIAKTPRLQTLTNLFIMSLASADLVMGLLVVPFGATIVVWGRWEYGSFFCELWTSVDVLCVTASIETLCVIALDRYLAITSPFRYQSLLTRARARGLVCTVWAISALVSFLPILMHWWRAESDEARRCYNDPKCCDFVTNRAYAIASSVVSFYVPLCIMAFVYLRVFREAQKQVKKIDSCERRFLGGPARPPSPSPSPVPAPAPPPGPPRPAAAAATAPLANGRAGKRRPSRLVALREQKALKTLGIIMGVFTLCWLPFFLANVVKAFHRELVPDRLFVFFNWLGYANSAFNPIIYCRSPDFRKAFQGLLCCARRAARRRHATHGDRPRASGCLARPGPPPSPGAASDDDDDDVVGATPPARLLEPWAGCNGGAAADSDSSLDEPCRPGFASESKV
Sequence of 5-hydroxytryptamine receptor 6 (P50406 whole entry): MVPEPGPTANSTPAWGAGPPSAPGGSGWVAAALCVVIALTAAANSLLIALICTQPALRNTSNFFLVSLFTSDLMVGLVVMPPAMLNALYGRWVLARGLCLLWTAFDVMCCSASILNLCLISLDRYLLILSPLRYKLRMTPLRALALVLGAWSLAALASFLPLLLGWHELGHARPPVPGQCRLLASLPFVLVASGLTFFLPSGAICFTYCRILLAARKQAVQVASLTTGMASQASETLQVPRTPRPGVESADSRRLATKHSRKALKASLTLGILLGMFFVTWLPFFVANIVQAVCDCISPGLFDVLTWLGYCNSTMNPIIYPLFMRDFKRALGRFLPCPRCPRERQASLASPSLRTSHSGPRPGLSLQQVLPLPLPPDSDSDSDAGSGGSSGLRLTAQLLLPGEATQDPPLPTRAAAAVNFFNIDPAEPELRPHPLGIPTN
Sequence of Beta-3 adrenergic receptor (P13945 whole entry): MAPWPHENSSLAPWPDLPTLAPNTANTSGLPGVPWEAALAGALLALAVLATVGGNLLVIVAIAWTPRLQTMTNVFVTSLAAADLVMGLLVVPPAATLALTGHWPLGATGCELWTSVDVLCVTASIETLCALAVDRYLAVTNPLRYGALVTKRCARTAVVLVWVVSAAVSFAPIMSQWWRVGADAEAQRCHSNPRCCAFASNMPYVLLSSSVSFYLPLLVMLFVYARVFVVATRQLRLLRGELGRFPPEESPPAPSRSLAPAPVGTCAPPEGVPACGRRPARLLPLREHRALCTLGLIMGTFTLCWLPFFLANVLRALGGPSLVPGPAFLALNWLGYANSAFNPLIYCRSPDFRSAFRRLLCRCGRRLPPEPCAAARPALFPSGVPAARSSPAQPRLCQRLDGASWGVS

SMILES	IC50 [1]	IC50 [2]	IC50 (Carbonic anhydrase 2)	IC50 (Glucocorticoid receptor)	IC50 [3]	IC50 ([4]; hela)	IC50 [5]	Ki [5]	IC50 [6]	IC50 [7]	Ki [7]	IC50 (Glycine receptor)	IC50 [8]	IC50 (Adenosine receptor A1)	IC50 ([4]; read-out: IC50) [µM]	Ki ([4]; read-out: Ki) [µM]	IC50 ([5]; read-out: IC50) [µM]	Ki ([5]; read-out: Ki) [µM]
COc1ccc2cc(CC(=O)O)ccc2c1	Not Active	Not Active	Not Active	Not Active	Not Active	Not Active	Not Active	Not Active	Not Active	Not Active	Not Active	Not Active	Not Active	Not Active	–	–	–	–
CC(C)NC[C@H](O)COc1cccc2[nH]ccc12	Not Active	–	Not Active	Not Active	Not Active	Not Active	Not Active	Not Active	–	Not Active	Not Active	Not Active	Not Active	Not Active	–	–	–	–
c1ccc2c(c1)cc1ccc3cccc4ccc2c1c34	Not Active	Not Active	Not Active	Not Active	Not Active	Not Active	Not Active	Not Active	Not Active	Not Active	Not Active	Not Active	Not Active	Not Active	–	–	–	–
CC=CC(=O)N(CC)c1ccccc1C	Not Active	Not Active	Not Active	Not Active	Not Active	Not Active	Not Active	Not Active	Not Active	Not Active	Not Active	Not Active	Not Active	Not Active	–	–	–	–
C=C1C(=O)O[C@@H]2C3O[C@]3(C)CC/C=C(\C)CC[C@@H]12 (stereo partly specified)	Not Active	Not Active	Not Active	Not Active	Not Active	Not Active	Not Active	Not Active	Not Active	Not Active	Not Active	Not Active	Not Active	Not Active	–	–	–	–
COc1ccc2c(c1)c(CC(=O)OCC(=O)O)c(C)n2C(=O)c1ccc(Cl)cc1 [ACEMETACIN]	Not Active	Not Active	Not Active	Not Active	Not Active	Not Active	Not Active	Not Active	Not Active	Not Active	Not Active	Not Active	Not Active	Not Active	–	–	–	–
COC(=O)[C@H](c1ccccc1Cl)N1CCc2sccc2C1 [CLOPIDOGREL]	Not Active	Not Active	Not Active	Not Active	Not Active	Not Active	Not Active	Not Active	–	Not Active	Not Active	Not Active	Not Active	Not Active	–	–	–	–
CN1CCC[C@H]1c1cccnc1 [NICOTINE]	Not Active	Not Active	Not Active	–	Not Active	Not Active	Not Active	Not Active	Not Active	Not Active	Not Active	Not Active	Not Active	Not Active	–	–	–	–
CNCCC=C1c2ccccc2CCc2ccccc21 [NORTRIPTYLINE]	Not Active	Not Active	Not Active	Not Active	–	–	–	–	Not Active	Not Active	Not Active	Not Active	Not Active	Not Active	0.554	0.257	3.86	2.57
CC1COc2c(N3CCN(C)CC3)c(F)cc3c(=O)c(C(=O)O)cn1c23 (stereo unspecified) [OFLOXACIN]	Not Active	Not Active	Not Active	–	Not Active	Not Active	Not Active	Not Active	Not Active	Not Active	Not Active	Not Active	Not Active	Not Active	–	–	–	–
Oc1cccc2cccnc12 [OXYQUINOLINE]	Not Active	Not Active	Not Active	–	Not Active	Not Active	Not Active	Not Active	Not Active	Not Active	Not Active	Not Active	Not Active	Not Active	–	–	–	–
CCCc1cc(=O)[nH]c(=S)[nH]1 [PROPYLTHIOURACIL]	Not Active	Not Active	Not Active	–	Not Active	Not Active	Not Active	Not Active	Not Active	Not Active	Not Active	Not Active	Not Active	Not Active	–	–	–	–
